Measurements from PubChem BioAssay (NCI).
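Interpolation was linear, between the two tested concentrations surrounding the appropriate level; five concentrations were tested over 48 hours in 96-well plates. TGI marks complete inhibition of growth.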

Key:
Assay in all cases: growth of human tumour cells (NCI), 48 h
HS 578T breast = system: HS 578T breast
SK-MEL-2 melanoma = system: SK-MEL-2 melanoma
IGROV1 ovarian = system: IGROV1 ovarian
T-47D breast = system: T-47D breast
SNB-75 CNS = system: SNB-75 CNS
NCI-H460 lung = system: NCI-H460 lung
RXF 393 renal = system: RXF 393 renal
MDA-N = system: MDA-N
OVCAR-4 ovarian = system: OVCAR-4 ovarian
CAKI-1 renal = system: CAKI-1 renal
TK-10 renal = system: TK-10 renal

Structure (SMILES)	TGI (HS 578T breast) [µM]	TGI (SK-MEL-2 melanoma) [µM]	TGI (IGROV1 ovarian) [µM]	TGI (T-47D breast) [µM]	TGI (SNB-75 CNS) [µM]	TGI (NCI-H460 lung) [µM]	TGI (RXF 393 renal) [µM]	TGI (MDA-N) [µM]	TGI (OVCAR-4 ovarian) [µM]	TGI (CAKI-1 renal) [µM]	TGI (TK-10 renal) [µM]
Cn1c(SCc2ccc(F)cc2)nnc1C12CC3CC(CC(C3)C1)C2	85.1	> 100	78.2	> 100	> 100	> 100	> 100	> 100	> 100	> 100	
Cc1c(O)nc(-n2[nH]c3c(c2=O)CCCC3)[nH]c1=O	> 100	> 100	> 100	> 100		> 100	> 100	> 100	> 100	> 100	> 100
O=c1[nH][nH]c(=O)n1CCCCCCn1c(=O)[nH][nH]c1=O	> 100	> 100		> 100	> 100	> 100	> 100	> 100	> 100	> 100	> 100
CCN1CN(c2ccccc2)C2(CCN(CC3COc4ccccc4O3)CC2)C1=O (centres undefined)	60.2	30.7	> 100	67.4	94	45.4	40	6.54		> 100	> 100
COC(=O)/C=C\C(C#N)(C#N)N=Cc1ccc(C)cc1	45.3	32.1	26.3	4.61	31	41.1	3.9	14	12.9	6.53	3.65
C=C1C(=O)CC2C1CC(=O)/C(C)=C/CCC(C)(O)C2O (centres undefined)	26.5	22.9	20.4	3.96	28	45.5	11.6	2.86	29.1	3.37	8.51
Cc1nn(-c2ccccc2)c2c1C(c1cc3ccccc3nc1Cl)NC(=O)N2 (centres undefined)	96.2	29.5	24.9	> 100	50.2	> 100	55.9	37.2	> 100	> 100	> 100
CC(C)(C)[Si](C)(C)OCC1OC(n2ccc(=O)[nH]c2=O)C(O[Si](C)(C)C(C)(C)C)/C1=C/C#N (centres undefined)	> 100	42.4	> 100	> 100	> 100	> 100	11.9	> 85.7	> 100	98.2	> 44
O=C1NC(N2CCOCC2)=N/C1=C\c1ccco1	> 100	> 100	> 100	> 100	> 100		> 100	> 100	> 100	> 100	> 100
C=C(C(=O)OCC)C(=O)OCC	> 100	> 100	> 100	> 100	> 100	> 100	> 100	> 100		> 100	> 100
